{"source": "patent US20210308101A1", "about": "“METHODS OF TREATING FIBROMYALGIA” (Aptinyx Inc., priority 2019, published 2021)", "key": {"[1]": {"tested_on": "subjects with fibromyalgia", "experiment": "QST: cuff algometry", "format": "in vivo, human", "description": "Large volume, deep tissue pressure sensitivity was assessed by cuff algometry. Calibrated cuff pain stimuli were delivered to the gastrocnemius area of the lower leg using a validated MRI-compatible cuff pain device. This system included an air compressor, computerized pressure controller, and a 13.5 cm×82.5 cm Velcro-adjusted pressure cuff (similar to a blood pressure cuff). Subjects first received an ascending series of cuff pressures, starting at 20 mmHg and increasing in 20-mmHg steps (10- to 14-second duration pressures, 20-second interstimulus interval) to tolerance or a maximum of 400 mmHg. Each pressure was rated after deflation on a 0 to 100 NRS. These pain ratings were used to interpolate a series of 9 tolerable cuff pressures that were delivered in pseudo-randomized order and rated individually. […] Curves were constructed for each participant and used for analysis of drug and placebo effects. An abbreviated form of cuff algometry was performed during fMRI as an evoked pain stimulus.\nQST data were analyzed at the University of Michigan CPFRC. Dependent variables were the MAST derived outcomes (Pain50, pressure pain threshold, pain tolerance, and pain ratings at 2 kg/cm2), algometry-derived pressure pain thresholds (mean of three trials) at each anatomical site, average cuff intensity ratings (mean of ratings at all stimulus levels during the ascending or random sequences), and average visual task unpleasantness and brightness intensity ratings (mean of ratings at all stimulus levels). Practice data were not analyzed. Overall pain intensity and unpleasantness NRS scores as well as stimulus response curves for each test were assessed during post hoc analyses. Data points displaying measurement artefacts, including device malfunction or user error, were set to missing. Single subject QST variables were analyzed using paired t-tests and/or nonparametric Wilcoxon signed-rank tests in SPSS or R."}, "[2]": {"tested_on": "subjects with fibromyalgia", "experiment": "Numeric Pain Rating Scale (NPRS) daily pain scores", "format": "in vivo, human", "description": "As used herein, “NPRS” is Numeric Pain Rating Scale Score. Numeric pain rating scale is a unidimensional segmented numeric version of the visual analog scale. The NPRS score assessing average pain intensity in the past 24 hours are based on an 11-point numerical rating scale/Likert scale ranging from 0 to 10. Where 0 represents no pain and 10 is the worst pain imaginable. Individual one-time scores were collected at the Screening and Day 1 visits on the CRF in order to confirm eligibility status for the subjects. These CRF pain scores were not used in the analysis tables. Instead, the pain scores collected by eRT via phone data collection were used in the analysis tables. eRT collected a variable if the call was completed per the requirements. […] The daily pain scores were summarized using the mean and were calculated for the analysis visits at Baseline and Weeks 1-7. There needed to be at least 4 daily pain scores collected within a post-baseline analysis visit in order to calculate the mean pain score for that visit. Each mean analysis visit score took on values ranging from 0 to 10 and was rounded off by one number after the decimal point. No missing data imputations were used for these individual values or computed means. The actual values/means, changes from baseline, and changes from treatment periods at each analysis visit were summarized using descriptive statistics. Additionally, the treatment group comparisons were analyzed using the paired t-test and nonparametric Wilcoxon signed-rank test. All data collected and derived were presented in subject listings. The pain scores collected by eRT and the CRF were presented in separate subject listings.\nThe collection methods of the NPRS score assessing worst pain intensity in the past 24 hours were the same as the efficacy data for the NPRS score assessing average pain intensity in the past 24 hours and was analyzed using the same techniques. The worst pain score must be greater than or equal to the average pain score for each assessment. In the event a worst pain score was less than the average pain, both pain scores were removed from calculating the mean weekly analysis visit scores. These collected pain scores were presented in the subject listings with a note that they would be removed from the analysis tables.\nThe timeline of events in the study are depicted in FIG. 1A. The study included up to a 30 day screening period, to confirm the diagnosis, assess eligibility, and complete the baseline magnetic resonance imaging (MRI). This was a single-blind, exploratory, placebo-controlled pilot study in which eligible subjects received 2 weeks of daily oral (QD) placebo, 2 weeks of NYX-2925 20 mg PO daily (low dose), 2 weeks of NYX-2925 200 mg PO daily (high dose), followed by a 1 week follow-up period. An MRI was conducted during the screening period, during the last week of the placebo period, during the last week of the NYX-2925 20 mg administration period, and during the last week of the NYX-2925 200 mg administration period. Study visits occurred during screening, then at day one and weeks 1, 2, 3, 4, 5, 6, and 7. An optional MRI was completed at the end of the follow-up period for consenting subjects. Study participants and study staff responsible for interpreting MRI results were blinded to the study drug administration."}, "[3]": {"settings": "week six, after four weeks of NYX-2925, scale 0 to 10, n=19"}}, "data": [{"smiles": "CC(C)C(=O)N1CCC[C@]12CN([C@H](C(N)=O)[C@@H](C)O)C2=O", "note": "[NYX-2925, (2S, 3R)-3-hydroxy-2-((R)-5-isobutyryl-1-oxo-2,5-diazaspiro[3.4]octan-2-yl)butanamide]", "values": [{"measurement": "mean pain intensity rating of the Cuff Random paradigm", "setting": "[1]; NYX-2925 20 mg relative to baseline, p=0.073", "result": "marginally reduced"}, {"measurement": "Cuff Random Pain50 threshold", "setting": "[1]; NYX-2925 20 mg, baseline 151.89±110.64, p=0.031", "result": "193.00±128.16", "unit": "mmHg"}, {"measurement": "Cuff Random Pain50 threshold", "setting": "[1]; NYX-2925 200 mg, baseline 157.70±110.78, p=0.038", "result": "209.80±132.51", "unit": "mmHg"}, {"measurement": "cuff algometry procedure overall unpleasantness rating", "setting": "[1]; Week 7 follow-up, after cessation of NYX-2925, p=0.040 vs 200 mg", "result": "30.00±22.82"}, {"measurement": "cuff algometry procedure overall unpleasantness rating", "setting": "[1]; treatment with NYX-2925 200 mg (Week 6)", "result": "25.00±19.15"}, {"measurement": "average daily pain, change from baseline", "setting": "[2]; NYX-2925 20 mg", "result": "reductions from baseline"}, {"measurement": "worse daily pain, change from baseline", "setting": "[2]; NYX-2925 20 mg", "result": "reductions from baseline"}, {"measurement": "NPRS average pain score, mean change", "setting": "[2]; Week 2 (placebo) to Week 4 (NYX-2925 20 mg PO QD)", "result": "−0.10"}, {"measurement": "NPRS average pain score, mean change", "setting": "[2]; Week 2 (placebo) to Week 6 (NYX-2925 200 mg PO QD), p=0.0072", "result": "−0.66"}, {"measurement": "NPRS worst pain score, mean change", "setting": "[2]; Week 2 (placebo) to Week 6 (NYX-2925 200 mg), p=0.0360", "result": "−0.61"}, {"measurement": "Average daily pain score, reduction from baseline", "setting": "[2]; [3]", "result": 1.1, "unit": "point"}, {"measurement": "Worst daily pain score, reduction from baseline", "setting": "[2]; [3]", "result": 1.0, "unit": "point"}]}]}
